In patent US12419296B2, “Remote detection of pre-determined termite feeding activities in soil” (University of Florida Research Foundation, Inc., priority 2019, dated 2025):

Columns and labels:
rat [1] = conditions: cited from earlier work
rat [2] = assay: rat oral LD50 (acute toxicity); type: in vivo; conditions: relative to soil termiticide fipronil

## N#Cc1nn(-c2c(Cl)cc(C(F)(F)F)cc2Cl)c(N)c1[S+]([O-])C(F)(F)F (stereo not drawn) [fipronil]
Rat [1]
  rat oral LD50: 97 mg/kg

## O=C(NC(=O)c1c(F)cccc1F)Nc1cc(Cl)c(OC(F)(F)C(F)C(F)(F)F)c(Cl)c1F (stereo not drawn) [noviflumuron]
Rat [1]
  rat oral LD50: > 3,160 mg/kg
Rat [2]
  fold less toxic than fipronil (rat oral LD50): 32 fold
